In patent US20130184338A1, “PHENYLPROPYL CARBAMATE DERIVATIVES FOR USE IN PREVENTING OR TREATING MULTIPLE SCLEROSIS” (Bio-Pharm Solutions Co., Ltd., priority 2011, published 2013):
Marks after values point to notes of the source that are not given here.

These molecules were tested on male mice (ICR) (assay: Muscle relaxation: grip strength). Conditions: Mus musculus, ip; intraperitoneal, at time of maximum effect; 50% of activity vs vehicle only; read-out: MR test ED50, III = Grip strength.
Format: in vivo
Protocol: (§1) For testing, male mice (ICR) were purchased from ORIENT BIO INC. (Korea), divided into several groups with 6 mice in each group, and were adapted for 4-5 days. The mice having the weight ranging from 19 g to 26 g were employed for the test. The pharmacological effect of the test compounds on muscle relaxation was evaluated by Rotarod test, grip strength test, and muscular force (wire hang) test. All mice were adapted to the test environment at one hour before starting the tests. The pharmacological effects of all the test compounds were evaluated by administration through peritoneal cavity of the mice (10 ul/g, bw).
A grip strength test using the test animals' forelimbs was performed using an instrument equipped with triangle ring and designed so as to easily grip with the forelimbs of experimental animals, manufactured from Ugo Basile Inc. (Ugo Basile, Model47106, Italy). The test was conducted before and after administration of the compounds to evaluate the effects thereof. […] The mouse was made to grip the rod with its forelimbs, and its tail was pulled, where the force at which the mouse detached from the rod was recorded. The instrument indicated the force in grams. All of the mice were given […] for test, and the 3 highest values among the test opportunities were selected and the mean value was used as the test result. This experimentation was conducted according to the method described in the reference, ‘Nevins et al. (1993) Quantitative grip strength assessment as a means of evaluating muscle relaxation in mice. Psychopharmacol. 110: 92-96’.
(§2) The results of muscle relaxation activity of the phenyl carbamate compounds measured in above Experimental Examples 11.2 to 11.5 are shown in following Table 5.

Row | Compound | ED50 [mg/kg]
1 | CCC(OC(N)=O)C(O)c1ccccc1Cl (racemic) [Compound 8, 1-(2-chlorophenyl)-1-hydroxybutyl-2-carbamate] | 69.5
2 | CC(C)[C@H](OC(N)=O)[C@@H](O)c1ccccc1Cl [Compound 9, 1-(2-chlorophenyl)-(S)-1-hydroxy-3-methyl-butyl-(S)-2-carbamate] | 104
3 | CC(OC(=O)NC1CC1)C(O)c1ccccc1Cl (racemic) [Compound 32, 1-(2-chlorophenyl)-1-hydroxypropyl-2-N-cyclopropylcarbamate] | 45.2
4 | CC(C)NC(=O)OC(C)C(O)c1ccccc1Cl (racemic) [Compound 31, 1-(2-chlorophenyl)-1-hydroxypropyl-2-N-isopropylcarbamate] | 50.4
5 | CCCNC(=O)O[C@H](C)[C@H](O)c1ccccc1Cl [Compound 23, 1-(2-chlorophenyl)-(R)-1-hydroxypropyl-(R)-2-N-propylcarbamate] | 73.8
6 | CC[C@H](OC(N)=O)[C@@H](O)c1ccccc1Cl [Compound 6, 1-(2-chlorophenyl)-(S)-1-hydroxybutyl-(S)-2-carbamate] | 70.7
7 | CC(C)C(OC(N)=O)C(O)c1ccccc1Cl (racemic) [Compound 11, 1-(2-chlorophenyl)-1-hydroxy-3-methyl-butyl-2-carbamate] | 126
8 | C[C@H](OC(=O)NC1CCCCC1)[C@@H](O)c1ccccc1Cl [Compound 19, 1-(2-chlorophenyl)-(S)-1-hydroxypropyl-(R)-2-N-cyclohexyl carbamate] | 110
9 | C[C@H](OC(N)=O)[C@@H](O)c1ccccc1F [Compound 63, 1-(2-fluorophenyl)-(S)-1-hydroxypropyl-(S)-2-carbamate] | 118
10 | CCCNC(=O)OC(C)C(O)c1ccccc1Cl (racemic) [Compound 30, 1-(2-chlorophenyl)-1-hydroxypropyl-2-N-propylcarbamate] | 65.4
11 | CC[C@@H](OC(N)=O)[C@H](O)c1ccccc1Cl [Compound 7, 1-(2-chlorophenyl)-(R)-1-hydroxybtyl-(R)-2-carbamate] | 248

Same assay, conditions: concentration administered 120 mg/kg, intraperitoneal

Row | Compound | III = Grip strength, effect (%) compared to control treated with vehicle only
12 | C[C@@H](OC(N)=O)[C@H](O)c1ccccc1F [Compound 64, 1-(2-fluorophenyl)-(R)-1-hydroxypropyl-(R)-2-carbamate] | 120^a (35.4%)

What follows are molecules tested on male mice (ICR) (assay: Muscle relaxation: wire hang). Conditions: Mus musculus; intraperitoneal, at time of maximum effect; 50% of activity vs vehicle only; read-out: MR test ED50, IV = Wire hang.
Format: in vivo
Protocol: as §1
This experimentation was conducted using a metal wire of 30 cm in length, which was suspended between two pillars at a height of about 40 cm from the bottom covered with a soft pad. […] Each mouse was made to grip the wire using two forelimbs, and the elapse time before the mouse fell off from the wire to the pad on the bottom was recorded in seconds. Each mouse was given 5 opportunities for this test at an interval of 2 minutes period. The highest 3 records among the test opportunities were selected and the mean value was used as the test result. This experimentation was conducted according to the method described in the reference, ‘Jacqueline N. Crawley (1999) Behavioral phenotyping of transgenic and knockout mice: experimental design and evaluation of general health, sensory functions, motor abilities, and specific behavioral tests. Brain Res. 835: 18-26’.
as §2

Row | Compound | ED50 [mg/kg]
13 | C[C@@H](OC(=O)NC1CCCCC1)[C@H](O)c1ccccc1Cl [Compound 26, 1-(2-chlorophenyl)-(R)-1-hydroxypropyl-(R)-2-N-cyclohexyl carbamate] | 63.8
14 | CC(OC(=O)NC1CC1)C(O)c1ccccc1Cl (racemic) [Compound 32, 1-(2-chlorophenyl)-1-hydroxypropyl-2-N-cyclopropylcarbamate] | 36.6
15 | CC(C)NC(=O)OC(C)C(O)c1ccccc1Cl (racemic) [Compound 31, 1-(2-chlorophenyl)-1-hydroxypropyl-2-N-isopropylcarbamate] | 52.1
16 | CCCNC(=O)O[C@H](C)[C@H](O)c1ccccc1Cl [Compound 23, 1-(2-chlorophenyl)-(R)-1-hydroxypropyl-(R)-2-N-propylcarbamate] | 46
17 | C[C@H](OC(=O)NC1CCCCC1)[C@@H](O)c1ccccc1Cl [Compound 19, 1-(2-chlorophenyl)-(S)-1-hydroxypropyl-(R)-2-N-cyclohexyl carbamate] | 28.5
18 | CCCNC(=O)OC(C)C(O)c1ccccc1Cl (racemic) [Compound 30, 1-(2-chlorophenyl)-1-hydroxypropyl-2-N-propylcarbamate] | 31.7
19 | CC(OC(=O)NC1CCCCC1)C(O)c1ccccc1Cl (racemic) [Compound 33, 1-(2-chlorophenyl)-1-hydroxypropyl-2-N-cyclohexylcarbamate] | 74.6

Same assay, conditions: concentration administered 100 mg/kg, intraperitoneal

Row | Compound | IV = Wire hang, effect (%) compared to control treated with vehicle only
20 | C[C@@H](OC(N)=O)[C@H](O)c1ccccc1F [Compound 64, 1-(2-fluorophenyl)-(R)-1-hydroxypropyl-(R)-2-carbamate] | 100^a (30.8%)
21 | C[C@H](OC(N)=O)[C@@H](O)c1ccccc1F [Compound 63, 1-(2-fluorophenyl)-(S)-1-hydroxypropyl-(S)-2-carbamate] | 100^a (84.2%)

The molecules below were run on male ICR mice (assay: MES (Maximal Electroshock Seizure) test in mice). Conditions: Mus musculus, po, read-out: MES test (po) Protection %.

Row | Compound | responders at 200 mg/kg [%]
22 | CC(OC(=O)NC1CC1)C(O)c1ccccc1Cl (racemic) [Compound 32, 1-(2-chlorophenyl)-1-hydroxypropyl-2-N-cyclopropylcarbamate] | 100
23 | CC(C)NC(=O)OC(C)C(O)c1ccccc1Cl (racemic) [Compound 31, 1-(2-chlorophenyl)-1-hydroxypropyl-2-N-isopropylcarbamate] | 25
24 | CCCNC(=O)O[C@H](C)[C@H](O)c1ccccc1Cl [Compound 23, 1-(2-chlorophenyl)-(R)-1-hydroxypropyl-(R)-2-N-propylcarbamate] | 25
25 | C[C@@H](OC(N)=O)[C@H](O)c1ccc(Cl)cc1Cl [Compound 45, 1-(2,4-dichlorophenyl)-(R)-1-hydroxypropyl-(R)-2-carbamate] | 0
26 | CCCNC(=O)OC(C)C(O)c1ccccc1Cl (racemic) [Compound 30, 1-(2-chlorophenyl)-1-hydroxypropyl-2-N-propylcarbamate] | 25

These molecules were tested on male mice (ICR) (assay: Muscle relaxation: endurance time on rotarod rotating at accelerated speed). Conditions: Mus musculus, ip; intraperitoneal, at time of maximum effect; 50% of activity vs vehicle only; read-out: MR test ED50, I = Acc. Rotarod.
Format: in vivo
Protocol: as §1
At 24 hours before testing, the mice to be tested were preliminarily trained for 5 minutes on a rod rotating at the rate of 6 revolutions per a minute. The pharmacological effect on muscle relaxation of the test compounds were evaluated by observing the mice on a rod for 5 minutes, where the rod was accelerated from 4 to 40 revolutions per a minute during the test time. The endurance time that each mouse endures on the acceleratedly rotated rod without falling off from the rod was recorded. As test time for evaluation, a maximum of 5 minutes was applied. […] This experimentation was conducted according to the method described in the reference, ‘Monville et al. (2006) Comparison of incremental and accelerating protocol of the rotarod test for the assessment of motor deficits in the 6-OHDA model. J. Neurosci. Meth. 158: 219-223’.
as §2

Row | Compound | ED50 [mg/kg]
27 | CCC(OC(N)=O)C(O)c1ccccc1Cl (racemic) [Compound 8, 1-(2-chlorophenyl)-1-hydroxybutyl-2-carbamate] | 50.6
28 | CC(C)C(OC(N)=O)C(O)c1ccccc1Cl (racemic) [Compound 11, 1-(2-chlorophenyl)-1-hydroxy-3-methyl-butyl-2-carbamate] | 102
29 | C[C@H](OC(=O)NC1CCCCC1)[C@@H](O)c1ccccc1Cl [Compound 19, 1-(2-chlorophenyl)-(S)-1-hydroxypropyl-(R)-2-N-cyclohexyl carbamate] | 95.3
